# From US6054435A, “6-O-substituted macrolides having antibacterial activity” (priority 1999, dated 2000)
# Columns and labels:
# Experiment in all cases: in vitro antibacterial activity (MIC), agar dilution
# Type in all cases: cell-based
# [1] = test system: Staphylococcus aureus CMX 553; conditions: organism code FF; BHI agar, 35-37° C., 20 to 24 hours; unit assumed
# Description: (§1) Representative compounds of the present invention were assayed in vitro for antibacterial activity as follows: Twelve petri dishes containing successive aqueous dilutions of the test compound mixed with 10 mL of sterilized Brain Heart Infusion (BHI) agar (Difco 0418-01-5) were prepared. Each plate was inoculated with 1:100 (or 1:10 for slow-growing strains, such as Micrococcus and Streptococcus) dilutions of up to 32 different microorganisms, using a Steers replicator block. […] In addition, a control plate, using BHI agar containing no test compound, was prepared and incubated at the beginning and end of each test.
# (§2) An additional plate containing a compound having known susceptibility patterns for the organisms being tested and belonging to the same antibiotic class as the test compound was also prepared and incubated as a further control, as well as to provide test-to-test comparability.
# (§3) After incubation, each plate was visually inspected. The minimum inhibitory concentration (MIC) was defined as the lowest concentration of drug yielding no growth, a slight haze, or sparsely isolated colonies on the inoculum spot as compared to the growth control.
# [2] = test system: Streptococcus Pneumonia 5649; conditions: organism code ZZA; BHI agar, 35-37° C., 20 to 24 hours; unit assumed
# Description: as §1, §2, §3
# [3] = test system: Staphylococcus aureus 1775; conditions: organism code GG; BHI agar, 35-37° C., 20 to 24 hours; unit assumed
# Description: as §1, §2, §3
# [4] = test system: Staphylococcus aureus A-5278; conditions: organism code CC; BHI agar, 35-37° C., 20 to 24 hours; unit assumed
# Description: as §1, §2, §3
# [5] = test system: Micrococcus luteus ATCC 9341; conditions: organism code OO; BHI agar, 35-37° C., 20 to 24 hours; unit assumed
# Description: as §1, §2, §3
# [6] = test system: Streptococcus pyogenes PIU 2548; conditions: organism code NN; BHI agar, 35-37° C., 20 to 24 hours; unit assumed
# Description: as §1, §2, §3
# [7] = test system: Nocardia Asteroides ATCC9970; conditions: organism code VV; BHI agar, 35-37° C., 20 to 24 hours; unit assumed
# Description: as §1, §2, §3
# [8] = test system: Streptococcus Pneumonia ATCC6303; conditions: organism code XX; BHI agar, 35-37° C., 20 to 24 hours; unit assumed
# Description: as §1, §2, §3
# [9] = test system: Streptococcus bovis A-5169; conditions: organism code JJ; BHI agar, 35-37° C., 20 to 24 hours; unit assumed
# Description: as §1, §2, §3
# [10] = test system: Mycobacterium smegmatis ATCC 114; conditions: organism code UU; BHI agar, 35-37° C., 20 to 24 hours; unit assumed
# Description: as §1, §2, §3
# [11] = test system: Staphylococcus epidermidis 3519; conditions: organism code HH; BHI agar, 35-37° C., 20 to 24 hours; unit assumed
# Description: as §1, §2, §3
# [12] = test system: Micrococcus luteus ATCC 4698; conditions: organism code PP; BHI agar, 35-37° C., 20 to 24 hours; unit assumed
# Description: as §1, §2, §3
# [13] = test system: Streptococcus agalactiae CMX 508; conditions: organism code KK; BHI agar, 35-37° C., 20 to 24 hours; unit assumed
# Description: as §1, §2, §3
# [14] = test system: Streptococcus pyogenes EES61; conditions: organism code LL; BHI agar, 35-37° C., 20 to 24 hours; unit assumed
# Description: as §1, §2, §3
# [15] = test system: Candida albicans CCH 442; conditions: organism code TT; BHI agar, 35-37° C., 20 to 24 hours; unit assumed
# Description: as §1, §2, §3
# [16] = test system: Escherichia coli JUHL; conditions: organism code QQ; BHI agar, 35-37° C., 20 to 24 hours; unit assumed
# Description: as §1, §2, §3
# [17] = test system: Enterococcus faecium ATCC 8043; conditions: organism code II; BHI agar, 35-37° C., 20 to 24 hours; unit assumed
# Description: as §1, §2, §3
# [18] = test system: Staphylococcus aureus CMX 642A; conditions: organism code DD; BHI agar, 35-37° C., 20 to 24 hours; unit assumed
# Description: as §1, §2, §3
# [19] = test system: Haemophilis Influenzae DILL AMP R; conditions: organism code WW; BHI agar, 35-37° C., 20 to 24 hours; unit assumed
# Description: as §1, §2, §3
# [20] = test system: Staphylococcus aureus NCTC10649M; conditions: organism code EE; BHI agar, 35-37° C., 20 to 24 hours; unit assumed
# Description: as §1, §2, §3
# [21] = test system: Streptococcus pyogenes 930; conditions: organism code MM; BHI agar, 35-37° C., 20 to 24 hours; unit assumed
# Description: as §1, §2, §3
# [22] = test system: Streptococcus Pneumonia 5979; conditions: organism code ZZ; BHI agar, 35-37° C., 20 to 24 hours; unit assumed
# Description: as §1, §2, §3
# [23] = test system: Escherichia coli DC-2; conditions: organism code SS; BHI agar, 35-37° C., 20 to 24 hours; unit assumed
# Description: as §1, §2, §3
# [24] = test system: Staphylococcus aureus ATCC 6538P; conditions: organism code AA; BHI agar, 35-37° C., 20 to 24 hours; unit assumed
# Description: as §1, §2, §3
# [25] = test system: Staphylococcus aureus A5177; conditions: organism code BB; BHI agar, 35-37° C., 20 to 24 hours; unit assumed
# Description: as §1, §2, §3
# [26] = test system: Escherichia coli SS; conditions: organism code RR; BHI agar, 35-37° C., 20 to 24 hours; unit assumed
# Description: as §1, §2, §3
# [27] = test system: Streptococcus Pneumonia GYR 1171; conditions: organism code YY; BHI agar, 35-37° C., 20 to 24 hours; unit assumed
# Description: as §1, §2, §3
Compound,MIC [1],MIC [2],MIC [4],MIC [5],MIC [6],MIC [7],MIC [8],MIC [9],MIC [10],MIC [11],MIC [12],MIC [13],MIC [15],MIC [16],MIC [17],MIC [18],MIC [19],MIC [20],MIC [21],MIC [22],other results
CC[C@H]1OC(=O)[C@H](C)C(=O)[C@H](C)[C@@H](O[C@@H]2O[C@H](C)C[C@H](N(C)C)[C@H]2O)[C@](C)(OCC#Cc2ccc(-c3ncccn3)s2)C[C@@H](C)C(=O)[C@H](C)[C@H]2NC(=O)O[C@@]21C [Example 5],0.02 µg/mL,0.25 µg/mL,> 100 µg/mL,0.01 µg/mL,0.1 µg/mL,0.01 µg/mL,0.03 µg/mL,≤ 0.005 µg/mL,0.78 µg/mL,0.05 µg/mL,0.1 µg/mL,0.01 µg/mL,> 100 µg/mL,25 µg/mL,0.02 µg/mL,0.05 µg/mL,2 µg/mL,0.05 µg/mL,25 µg/mL,0.5 µg/mL,MIC [3]: > 100 µg/mL; MIC [14]: ≤ 0.005 µg/mL; MIC [23]: 25 µg/mL; MIC [24]: 0.02 µg/mL; MIC [25]: 0.05 µg/mL; MIC [26]: 0.1 µg/mL; MIC [27]: 0.03 µg/mL
CC[C@H]1OC(=O)[C@H](C)C(=O)[C@H](C)[C@@H](O[C@@H]2O[C@H](C)C[C@H](N(C)C)[C@H]2O)[C@](C)(OC/C=C/c2cnc(-c3cncs3)s2)C[C@@H](C)C(=O)[C@H](C)[C@H]2NC(=O)O[C@@]21C [Example 60],0.05 µg/mL,0.25 µg/mL,> 100 µg/mL,≤ 0.005 µg/mL,0.2 µg/mL,0.01 µg/mL,≤ 0.004 µg/mL,≤ 0.005 µg/mL,1.56 µg/mL,0.1 µg/mL,0.02 µg/mL,0.01 µg/mL,> 100 µg/mL,50 µg/mL,0.02 µg/mL,0.05 µg/mL,4 µg/mL,0.1 µg/mL,3.1 µg/mL,1 µg/mL,MIC [3]: > 100 µg/mL; MIC [14]: 0.01 µg/mL; MIC [23]: 100 µg/mL; MIC [24]: 0.1 µg/mL; MIC [25]: 0.05 µg/mL; MIC [26]: 0.2 µg/mL; MIC [27]: ≤ 0.004 µg/mL
CC[C@H]1OC(=O)[C@H](C)C(=O)[C@H](C)[C@@H](O[C@@H]2O[C@H](C)C[C@H](N(C)C)[C@H]2O)[C@](C)(OCC#Cc2ccc(-c3cncnc3)s2)C[C@@H](C)C(=O)[C@H](C)[C@H]2NC(=O)O[C@@]21C [Example 4],0.1 µg/mL,0.5 µg/mL,> 100 µg/mL,0.01 µg/mL,0.1 µg/mL,0.02 µg/mL,0.03 µg/mL,≤ 0.005 µg/mL,0.78 µg/mL,0.1 µg/mL,0.05 µg/mL,0.01 µg/mL,> 100 µg/mL,50 µg/mL,0.02 µg/mL,0.1 µg/mL,2 µg/mL,0.1 µg/mL,12.5 µg/mL,2 µg/mL,MIC [3]: > 100 µg/mL; MIC [14]: 0.01 µg/mL; MIC [23]: 50 µg/mL; MIC [24]: 0.1 µg/mL; MIC [25]: 0.1 µg/mL; MIC [26]: 0.39 µg/mL; MIC [27]: 0.03 µg/mL
CC[C@H]1OC(=O)[C@H](C)C(=O)[C@H](C)[C@@H](O[C@@H]2O[C@H](C)C[C@H](N(C)C)[C@H]2O)[C@](C)(OCC#Cc2ccc(-c3ccc(F)cc3)s2)C[C@@H](C)C(=O)[C@H](C)[C@H]2NC(=O)O[C@@]21C [Example 22],3.1 µg/mL,4 µg/mL,> 100 µg/mL,0.39 µg/mL,3.1 µg/mL,0.78 µg/mL,1 µg/mL,0.39 µg/mL,1.56 µg/mL,3.1 µg/mL,3.1 µg/mL,0.39 µg/mL,> 100 µg/mL,> 100 µg/mL,0.78 µg/mL,3.1 µg/mL,64 µg/mL,3.1 µg/mL,> 100 µg/mL,4 µg/mL,MIC [3]: > 100 µg/mL; MIC [14]: 0.39 µg/mL; MIC [23]: > 100 µg/mL; MIC [24]: 3.1 µg/mL; MIC [25]: 3.1 µg/mL; MIC [26]: 25 µg/mL; MIC [27]: 1 µg/mL
CC[C@H]1OC(=O)[C@H](C)C(=O)[C@H](C)[C@@H](O[C@@H]2O[C@H](C)C[C@H](N(C)C)[C@H]2O)[C@](C)(OCC#Cc2ccc(-c3ccsc3)s2)C[C@@H](C)C(=O)[C@H](C)[C@H]2NC(=O)O[C@@]21C [Example 27],0.05 µg/mL,0.25 µg/mL,100 µg/mL,≤ 0.005 µg/mL,0.1 µg/mL,0.01 µg/mL,0.015 µg/mL,≤ 0.005 µg/mL,0.2 µg/mL,0.05 µg/mL,0.05 µg/mL,≤ 0.005 µg/mL,> 100 µg/mL,100 µg/mL,0.01 µg/mL,0.05 µg/mL,2 µg/mL,0.05 µg/mL,6.2 µg/mL,4 µg/mL,MIC [14]: ≤ 0.005 µg/mL; MIC [23]: 100 µg/mL; MIC [24]: 0.05 µg/mL; MIC [25]: 0.05 µg/mL; MIC [26]: 0.2 µg/mL; MIC [27]: 0.015 µg/mL
CC[C@H]1OC(=O)[C@H](C)C(=O)[C@H](C)[C@@H](O[C@@H]2O[C@H](C)C[C@H](N(C)C)[C@H]2O)[C@](C)(OC/C=C/c2ccc(-c3cccc(F)c3)s2)C[C@@H](C)C(=O)[C@H](C)[C@H]2NC(=O)O[C@@]21C [Example 72],0.2 µg/mL,1 µg/mL,25 µg/mL,0.02 µg/mL,0.39 µg/mL,0.39 µg/mL,0.125 µg/mL,≤ 0.005 µg/mL,1.56 µg/mL,0.2 µg/mL,0.05 µg/mL,0.01 µg/mL,> 100 µg/mL,> 100 µg/mL,0.05 µg/mL,0.2 µg/mL,8 µg/mL,0.2 µg/mL,12.5 µg/mL,4 µg/mL,MIC [3]: 25 µg/mL; MIC [23]: > 100 µg/mL; MIC [24]: 0.2 µg/mL; MIC [25]: 0.2 µg/mL; MIC [26]: 1.56 µg/mL; MIC [27]: 0.125 µg/mL
